The source made the active and inactive calls. The calls are words filed in the database; no cut-off is given here.
Test system: Haemonchus contortus
Assay: Nematocidal activity against Haemonchus contortus
Format: functional

Row | Compound | LD99 | Activity
1 | COC(=O)/C=C\c1c[nH]c2cc(Br)ccc12 | 50 µg/mL | 
2 | CNc1c(N(C)C=O)c(=O)n(C)c(=O)n1C |  | inactive
3 | CCOC(=O)/C=C/c1c[nH]c2cc(Br)ccc12 | 42 µg/mL | 
4 | CCOC(=O)/C=C\c1c[nH]c2cc(Br)ccc12 | 42 µg/mL | 
5 | COC(=O)/C=C/c1c[nH]c2cc(Br)ccc12 | 50 µg/mL | 

Reference: ChEMBL document CHEMBL1159332, “Equilibrating isomers: bromoindoles and a seco-xanthine encountered during a study of nematocides from the southern Australian marine sponge Hymeniacidon sp” (2002)
